{
  "source": "patent US20230392121A1",
  "about": "“HYDROGELS FOR CELL CULTURE” (KATHOLIEKE UNIVERSITEIT LEUVEN, priority 2020, published 2023)",
  "key": {"PSC-HSCs [1]": {"test_system": "PSC-HSCs", "assay": "TGFβ exposure of HepMat-PSC-HSC cultures (24 h)", "type": "cell-based, human", "conditions": "25 ng/mL TGFβ", "experimental": "Day 12 HSC expressed ACTA2, PDG1FRα, COL1A1, COL3A1, COL5A2 and LOXL2 but low levels of LRAT (important for Vitamin-A metabolism in quiescent HSCs) and the more recently identified non-fibrotic HSC marker genes, RGS5 and IGFBP5 (FIGS. 3B and 3E). Accutase-harvested d12 PSC-HSCs were embedded at 3×10^5 cells/10 μl HepMat hydrogel, and maintained for 32 days in HSC medium. HSCs survived for 32 days in the HepMat hydrogel (Calcein-AM staining; FIG. 3B). […] Consistently, HSCs cultured in HepMat hydrogels stored retinol, as shown by BODIPY® staining and presence of typical blue autofluorescence elicited by UV light, even when cultured with low concentrations of palmitic acid (FIG. 3B). […] Thus, PSC-HSCs can be maintained for at least 32 days in the HepMat hydrogels. Moreover, culture of HSCs in these hydrogels may at least in part induce a less fibrotic HSC phenotype while still allowing TGFβ-mediated activation.\nTGFβ exposure of HepMat-PSC-HSC cultures: Day 32 HepMat-PSC-HSC mono-cultures hydrogels were exposed to 25 ng/ml of TGFβ (Peprotech) on day 32. Expression of inflammatory and fibrogenic genes was determined by RT-1PCR. Supernatants were collected for pro-collagen measurement by ELISA."}, "iETV2-ECs [2]": {"test_system": "iETV2-ECs", "type": "cell-based, human"}, "PSC-HSCs [3]": {"test_system": "PSC-HSCs", "assay": "TGFβ exposure of PSC-HSC HepMat mono-cultures (3 and 7 days)", "type": "cell-based, human", "experimental": "(§1) It was investigated whether HepMat co-cultures could be used to model liver fibrosis/steatosis, by exposing cultures either to TGFβ or oleic acid (OA). d32 HepMat co-cultures were treated with 25 ng/ml of TGFβ for an additional 3 days (single administration) or 7 days (2 administrations). […] In addition, TGFβ induced a 7±0.4-fold higher level of pro-collagen and 17±3.4-fold higher level of IL6 on day 7 of treatment in HepMat co-culture supernatants. Pro-collagen levels were unchanged in HC3x-HLCs and PSC-Mφ mono-cultures and ±3-fold increase in PSC-HSCs following 3 and 7 days of treatment with TGFβ.\n(§2) TGFβ exposure of HepMat-co-cultures and mono-cultures: Day 32 HepMat co-cultures and dayy 32 HepMat HC3x HLC, HSC and Mφ mono-cultures were incubated with 25 ng/ml TGFβ for 7 days (addition on day 0 and day 3). Expression of inflammatory and fibrogenic genes was determined by RT-qPCR. Supernatants were collected for pro-collagen measurement by ELISA.\n(§3) The supernatant was assayed for human TNF-alpha, ILla1pha, and IL6 by ELISA (Biolegend, CA, USA), according to the manufacturer's instructions. Presence of pro-collagen type I was detected by Pro-collagen Type I C-peptide ELISA kit (Takara Bio Inc). Secreted level of TNF-alpha, IL1alpha, IL6 and pro-collagen 1 were normalised for the cell number."}, "HepMat co-cultures [4]": {"test_system": "HepMat co-cultures", "assay": "TGFβ exposure of HepMat co-cultures (RT-qPCR, ELISA)", "type": "cell-based, human", "experimental": "as §1, §2, §3"}, "PSC-Mφs [5]": {"test_system": "PSC-Mφs", "assay": "TGFβ exposure of PSC-Mφ HepMat mono-cultures", "type": "cell-based, human", "conditions": "supernatants", "experimental": "as §1, §2, §3"}, "HC3x-HLCs": {"test_system": "HC3x-HLCs", "assay": "TGFβ exposure of HC3x-HLC HepMat mono-cultures", "type": "cell-based, human", "experimental": "as §1, §2, §3"}, "HepMat co-cultures [6]": {"test_system": "HepMat co-cultures", "assay": "Co-treatment of HepMat co-cultures with OA & OCA or OA & ELN", "type": "cell-based, human", "conditions": "800 μM OA with 1 μM OCA or 30 μM ELN, 3 days", "experimental": "A similar effect was observed on proinflammatory parameters.\n(§4) Oleic acid (OA) exposure of HepMat-co-cultures and mono-cultures: Day 32 HepMat co-cultures and Day 32 HepMat HC3x HLC, HSC and Mφ mono-cultures were incubated with 800 μM of OA (Sigma-Aldrich) for 7 days (addition on day 0 and day 3). Day 32 HepMat co-cultures were also incubated with a combination 800 μM of OA and 1 μM Obeticholic acid (OCA) (Company) or 800 μM of OA and 30 μM Elafibranor (ELN) (Company) for 3 days (addition on day 0 only). Expression of inflammatory and fibrogenic genes was determined by RT-1PCR. Supernatants were collected for pro-collagen measurement by ELISA on day 3 and day 7. In addition, co-culture were assayed for presence of steatosis by BODIPY® staining on day 3 and day 7 as follows: Gels were transferred to Glass Bottom plates (cellvis) for live-cell imaging, following incubation with BODIPY® 493/503 for lipids (Thermo Fisher Scientific) and Hoechst (Sigma Aldrich). Sample was visualised and scanned on a laser scanning confocal microscope (LSM 880, Zeiss, Germany),\nas §3"}, "[7]": {"conditions": "phase III; cited from earlier work"}, "[8]": {"test_system": "HC3x HLC, HSC and Mφ mono-cultures", "assay": "Oleic acid exposure of HepMat mono-cultures", "type": "cell-based, human", "experimental": "(§5) d32 HepMat co-cultures were also exposed to 0.8 mM OA for 3 days (1 dose) and 7 days (2 doses).\nas §4\nThe supernatant was assayed for human TNF-alpha, ILla1pha, and IL6 by ELISA (Biolegend, CA, USA), according to the manufacturer's instructions. Presence of pro-collagen type I was detected by Pro-collagen Type I C-peptide ELISA kit (Takara Bio Inc). […]"}, "HepMat co-cultures [9]": {"test_system": "HepMat co-cultures", "assay": "Oleic acid exposure of HepMat co-cultures (BODIPY, RT-qPCR, ELISA)", "type": "cell-based, human", "experimental": "as §5, §4, §3"}, "iETV2-ECs [10]": {"test_system": "iETV2-ECs", "assay": "Oleic acid treatment of iETV2-ECs", "type": "cell-based, human", "conditions": "OA treatment", "experimental": "as §5"}, "PSC-Mφs [11]": {"test_system": "PSC-Mφs", "assay": "LPS exposure of HepMat-PSC-Mφ cultures", "type": "cell-based, human", "conditions": "100 ng/ml LPS", "experimental": "Mφs were generated from PSCs, using a protocol adapted from van Wilgenburg et al. (2013) PLoS One. 8, e71098 (FIG. 3C). […] Thus, PSC-Mφs could also be functionally maintained for at least 32 days in HepMat hydrogels.\nLPS exposure of HepMat-PSC-MEs cultures: Day 32 HepMat-PSC-M[…]s mono-cultures were exposed to 100 ng/ml of LPS (Sigma-Aldrich). Expression of inflammatory genes was determined by RT-qPCR. Supernatants were collected for inflammatory cytokine measurement by ELISA."}, "[12]": {"conditions": "25 ng/ml TGFβ, d32 HepMat co-cultures"}},
  "note": "Where two headings read alike, the source gives them in different places.",
  "data": [
    {"compound": "TGFβ", "values": [
      {"measurement": "secreted levels of pro-collagen", "setting": "PSC-HSCs [1]; ELISA", "value": "significantly higher levels"},
      {"measurement": "LRAT transcript levels", "setting": "PSC-HSCs [1]; d32 HepMat HSCs", "value": "significant decrease"},
      {"measurement": "expression of COL1A1", "setting": "PSC-HSCs [1]; d32 HepMat HSCs", "value": "significant increase"},
      {"measurement": "survival of iETV2-ECs", "setting": "iETV2-ECs [2]", "value": "did not survive"},
      {"measurement": "increase in pro-collagen levels", "setting": "PSC-HSCs [3]; 3 and 7 days of treatment with TGFβ", "value": "~3", "unit": "fold"},
      {"measurement": "induction of COL1A1 and COL3A1 transcripts", "setting": "PSC-HSCs [3]; d3", "value": "4±1.1", "unit": "fold"},
      {"measurement": "increase in transcripts for COL1A1", "setting": "HepMat co-cultures [4]; [12]", "value": "17±3.5", "unit": "fold"},
      {"measurement": "increase in transcripts for COL3A1", "setting": "HepMat co-cultures [4]; [12]", "value": "13±3.4", "unit": "fold"},
      {"measurement": "increase in transcripts for COL5A2 or LOXL2", "setting": "HepMat co-cultures [4]; [12]", "value": "but not COL5A2 or LOXL2"},
      {"measurement": "induction of IL1α transcripts", "setting": "HepMat co-cultures [4]; TGFβ exposure for 7 days", "value": "7±0.49", "unit": "fold"},
      {"measurement": "induction of IL6 transcripts", "setting": "HepMat co-cultures [4]; TGFβ exposure for 7 days", "value": "13±4.3", "unit": "fold"},
      {"measurement": "higher level of IL6 in supernatants", "setting": "HepMat co-cultures [4]; day 7 of treatment, ELISA", "value": "17±3.4", "unit": "fold"},
      {"measurement": "higher level of pro-collagen in supernatants", "setting": "HepMat co-cultures [4]; day 7 of treatment, ELISA", "value": "7±0.4", "unit": "fold"},
      {"measurement": "Pro-collagen levels", "setting": "PSC-Mφs [5]", "value": "unchanged"},
      {"measurement": "induction of COL1A1 transcripts", "setting": "HC3x-HLCs; 3 days treatment", "value": "9±1.6", "unit": "fold"},
      {"measurement": "induction of COL1A1 transcripts", "setting": "HC3x-HLCs; 7 days treatment", "value": "5±0.7", "unit": "fold"},
      {"measurement": "Pro-collagen levels", "setting": "HC3x-HLCs; TGFβ, supernatants", "value": "unchanged"}
    ]},
    {"compound": "CSc1ccc(C(=O)/C=C/c2cc(C)c(OC(C)(C)C(=O)O)c(C)c2)cc1", "note": "[ELN, elafibranor]", "values": [
      {"measurement": "COL1A1 transcript levels", "setting": "HepMat co-cultures [6]", "value": "inhibited"},
      {"measurement": "IL6 transcripts", "setting": "HepMat co-cultures [6]", "value": "significantly reduced"},
      {"measurement": "bodipy staining", "setting": "HepMat co-cultures [6]", "value": "significant reduction"},
      {"measurement": "pro-collagen secretion in culture supernatants", "setting": "HepMat co-cultures [6]", "value": "no effect"},
      {"measurement": "production of secreted IL6", "setting": "HepMat co-cultures [6]", "value": "did not inhibit"},
      {"measurement": "improvement of liver fibrosis compared to placebo", "setting": "[7]", "value": "not significantly improve"}
    ]},
    {"compound": "CCCCCCCC/C=C\\CCCCCCCC(=O)O", "note": "[OA, oleic acid]", "values": [
      {"measurement": "pro-collagen or inflammatory cytokines in supernatants", "setting": "[8]; any of the mono-cultures", "value": "no significant changes"},
      {"measurement": "induction in COL1A1 and COL3A1 transcripts", "setting": "[8]; mono-cultures, 3 days after OA addition", "value": "~9", "unit": "fold"},
      {"measurement": "IL6 expression", "setting": "HepMat co-cultures [9]; 0.8 mM OA, d3", "value": 1200, "unit": "fold"},
      {"measurement": "IL6 expression", "setting": "HepMat co-cultures [9]; 0.8 mM OA, d7", "value": 1000, "unit": "fold"},
      {"measurement": "lipid accumulation, BODIPY staining", "setting": "HepMat co-cultures [9]; 0.8 mM OA, day 3, persisted until day 7", "value": "significant lipid accumulation"},
      {"measurement": "induction of COL1A1, COL1A3, COL5A2 as well as LOXL2", "setting": "HepMat co-cultures [9]; 0.8 mM OA, day 7", "value": "even greater induction"},
      {"measurement": "increase in pro-collagen in supernatants", "setting": "HepMat co-cultures [9]; 3 day after administration of OA", "value": "5±0.5", "unit": "fold"},
      {"measurement": "increase in pro-collagen in supernatants", "setting": "HepMat co-cultures [9]; 7 day after administration of OA", "value": "12±1.5", "unit": "fold"},
      {"measurement": "increase in IL6 in supernatants", "setting": "HepMat co-cultures [9]; day 7", "value": "90±5", "unit": "fold"},
      {"measurement": "survival of iETV2-ECs", "setting": "iETV2-ECs [10]", "value": "did not survive"}
    ]},
    {"compound": "lipopolysaccharide [LPS]", "values": [
      {"measurement": "secretion of TNFα, IL1α and IL6", "setting": "PSC-Mφs [11]; ELISA, significant for IL6", "value": "increased secretion of all three cytokines"},
      {"measurement": "expression of TNFα, IL1α and IL6", "setting": "PSC-Mφs [11]; additional 48 hours, RT-qPCR", "value": "significantly induced"}
    ]}
  ]
}
